Assay results: ChEMBL document CHEMBL5241053, “Discovery of novel steroidal-chalcone hybrids with potent and selective activity against triple-negative breast cancer” (Bioorg Med Chem, 2020)
The source made the active and inactive calls. The rule behind the calls is not given here.

Assays:
[1] = Selectivity index, ratio of IC50 for antiproliferative activity against human A549 cells to IC50 for antiproliferative activity against human MDA-MB-231 cells; type: functional
[2] = test system: HT-29; assay: Antiproliferative activity against human HT-29 cells assessed as cell growth inhibition incubated for 4 hrs by MTT assay; type: functional, cell-based; conditions: HT-29, 4 h
[3] = test system: MDA-MB-231; assay: Antiproliferative activity against human MDA-MB-231 cells assessed as cell growth inhibition incubated for 4 hrs by MTT assay; type: functional, cell-based; conditions: MDA-MB-231, 4 h
[4] = Selectivity index, ratio of IC50 for antiproliferative activity against human HT-29 cells to IC50 for antiproliferative activity against human MDA-MB-231 cells; type: functional
[5] = test system: A549; assay: Antiproliferative activity against human A549 cells assessed as cell growth inhibition incubated for 4 hrs by MTT assay; type: functional, cell-based; conditions: A549, 4 h
[6] = test system: MDA-MB-231; assay: Inhibition of colony formation in human MDA-MB-231 cells upto 5 uM for 9 days by crystal violet staining based assay; type: functional, cell-based; conditions: time 9.0 day

| SMILES | Ratio IC50 [1] | IC50 [2] | IC50 [3] | Ratio IC50 [4] | IC50 [5] | inhibition [6] |
| --- | --- | --- | --- | --- | --- | --- |
| COc1ccc(/C=C/C(=O)NCCNC(=O)[C@H]2CC[C@H]3[C@@H]4CCC5=CC(=O)C=C[C@]5(C)[C@H]4CC[C@]23C)cc1 | 2.6 | > 40 µM | 11.5 µM | >3.5 | 29.6 µM |  |
| C[C@]12CC[C@H]3[C@@H](CCC4=CC(=O)CC[C@@]43C)[C@@H]1CC[C@@H]2C(=O)NCCNC(=O)/C=C/c1ccc(C(F)(F)F)cc1 | >4.3 | 34.2 µM | 9.21 µM | 3.7 | > 40 µM |  |
| C[C@]12CC[C@H]3[C@@H](CCC4=CC(=O)CC[C@@]43C)[C@@H]1CC[C@@H]2C(=O)NCCNC(=O)/C=C/c1ccc(Cl)cc1 | 4.3 | 15 µM | 8.19 µM | 1.8 | 35.7 µM |  |
| C[C@]12CC[C@H]3[C@@H](CCC4=CC(=O)C=C[C@@]43C)[C@@H]1CC[C@@H]2C(=O)NCCNC(=O)/C=C/c1ccc(Cl)cc1 |  | > 40 µM | > 40 µM |  | 38.7 µM |  |
| C[C@]12CC[C@H]3[C@@H](CCC4=CC(=O)C=C[C@@]43C)[C@@H]1CC[C@@H]2C(=O)NCCNC(=O)/C=C/c1ccccc1 | 4.6 | 12.7 µM | 5.82 µM | 2.2 | 26.9 µM |  |
| COc1ccc(/C=C/C(=O)NCCNC(=O)[C@H]2CC[C@H]3[C@@H]4CCC5=CC(=O)C=C[C@]5(C)[C@H]4CC[C@]23C)cc1OC | >7 | > 40 µM | 5.75 µM | >7 | > 40 µM |  |
| O=C(/C=C/c1ccccc1)c1ccccc1 [CHALCONE] |  | 45.9 µM | 42.8 µM |  | 69.2 µM |  |
| COc1ccc(/C=C/C(=O)NCCNC(=O)[C@H]2CC[C@H]3[C@@H]4CCC5=CC(=O)CC[C@]5(C)[C@H]4CC[C@]23C)cc1OC | 2.3 | 14.7 µM | 15.2 µM | 1 | 35.1 µM |  |
| C[C@]12CC[C@H]3[C@@H](CCC4=CC(=O)CC[C@@]43C)[C@@H]1CC[C@@H]2C(=O)NCCNC(=O)/C=C/c1ccccc1 | 2.7 | 9.49 µM | 10.3 µM | 1.1 | 27.3 µM |  |
| C[C@]12CC[C@H]3[C@@H](CCC4=CC(=O)C=C[C@@]43C)[C@@H]1CC[C@@H]2C(=O)NCCNC(=O)/C=C/c1cccc([N+](=O)[O-])c1 | 2.5 | > 40 µM | 13.7 µM | >2.9 | 34.2 µM |  |
| CC(C)(C)OC(=O)NCCNC(=O)[C@H]1CC[C@H]2[C@@H]3CCC4=CC(=O)C=C[C@]4(C)[C@H]3CC[C@]12C |  | > 40 µM | > 40 µM |  | > 40 µM |  |
| O=c1[nH]cc(F)c(=O)[nH]1 [FLUOROURACIL] | 1.5 | 12.7 µM | 9.89 µM | 1.3 | 14.5 µM |  |
| C[C@]12CC[C@H]3[C@@H](CCC4=CC(=O)CC[C@@]43C)[C@@H]1CC[C@@H]2C(=O)NCCNC(=O)/C=C/c1ccc([N+](=O)[O-])cc1 | >3.3 | 27.8 µM | 12 µM | 2.3 | > 40 µM |  |
| COc1ccc(/C=C/C(=O)NCCNC(=O)[C@H]2CC[C@H]3[C@@H]4CCC5=CC(=O)CC[C@]5(C)[C@H]4CC[C@]23C)cc1 | >1.8 | 35 µM | 22.2 µM | 1.6 | > 40 µM |  |
| C[C@]12CC[C@H]3[C@@H](CCC4=CC(=O)CC[C@@]43C)[C@@H]1CC[C@@H]2C(=O)NCCNC(=O)/C=C/c1cccc([N+](=O)[O-])c1 | 1.6 | 25.4 µM | 11.2 µM | 2.3 | 17.7 µM |  |
| COc1cc(/C=C/C(=O)NCCNC(=O)[C@H]2CC[C@H]3[C@@H]4CCC5=CC(=O)C=C[C@]5(C)[C@H]4CC[C@]23C)cc(OC)c1OC |  | > 40 µM | > 40 µM |  | 35.9 µM |  |
| COc1ccccc1/C=C/C(=O)NCCNC(=O)[C@H]1CC[C@H]2[C@@H]3CCC4=CC(=O)C=C[C@]4(C)[C@H]3CC[C@]12C | 57.6 | 16.8 µM | 0.52 µM | 32.3 | 29.9 µM | Active |
| C[C@]12CC[C@H]3[C@@H](CCC4=CC(=O)C=C[C@@]43C)[C@@H]1CC[C@@H]2C(=O)NCCNC(=O)/C=C/c1ccc(C(F)(F)F)cc1 | 3.2 | > 40 µM | 12.5 µM | >3.2 | 38.1 µM |  |
| C[C@]12CC[C@H]3[C@@H](CCC4=CC(=O)C=C[C@@]43C)[C@@H]1CC[C@@H]2C(=O)NCCNC(=O)/C=C/c1ccc([N+](=O)[O-])cc1 | >1.8 | > 40 µM | 22.6 µM | >1.8 | > 40 µM |  |
| COc1cc(/C=C/C(=O)NCCNC(=O)[C@H]2CC[C@H]3[C@@H]4CCC5=CC(=O)CC[C@]5(C)[C@H]4CC[C@]23C)cc(OC)c1OC |  | > 40 µM | > 40 µM |  | > 40 µM |  |
| CC(C)(C)OC(=O)NCCNC(=O)[C@H]1CC[C@H]2[C@@H]3CCC4=CC(=O)CC[C@]4(C)[C@H]3CC[C@]12C |  | > 40 µM | 24.8 µM |  | > 40 µM |  |
